Measurements as given in patent US20130096193A1, “CREATINE BETA-ALANINATE: A NOVEL SALT FOR INCREASING ATHLETIC PERFORMANCE” (priority 2009, published 2013).
Where two headings read alike, the source gives them in different places.

Tests used:
[1] = after 10 week supplementation; cited from earlier work
[2] = cited from earlier work

| Molecule | increase in intramuscular carnosine content, average [1] [%] | paraesthesia symptoms ([2]; 10 mg per kg body weight, some individuals) | paraesthesia symptoms ([2]; 20 mg per kg bodyweight, majority of individuals) | paraesthesia symptoms ([2]; 40 mg per kg body weight) | ingested amount that causes paraesthesia ([2]; in solution or as powder in gelatin capsules) | duration of paraesthesia ([2]; oral) | time to beginning of paraesthesia after oral administration ([2]; oral) | additional β-alanine administrable before symptoms of paraesthesia, compared with β-alanine alone (human subjects, oral) | single oral dose administered before the onset of paraesthesia was noted (human subjects, oral, gelatin capsules, single dose) | equivalent β-alanine dose before onset of paraesthesia (salt mass is about 40.45% β-alanine) |
| --- | --- | --- | --- | --- | --- | --- | --- | --- | --- | --- |
| NCCC(=O)O [β-alanine, 3-Aminopropanoic acid] | 80.1 | mild symptoms | significant symptoms | severe symptoms | above 10 mg per kg body weight | up to 1 hour | about 20 minutes |  |  |  |
| creatine β-alaninate |  |  |  |  |  |  |  | roughly 100% | up to 55.00 mg/kg | about 22.25 mg/kg |
